Data set [1] has as its system HIF. The note with it: cited from earlier work.
Data set [2] relates to rats. The note with it: inhaled; cited from earlier work.
In data set [3] the test system is myofibroblasts. The note with it: rat, in vivo; cited from earlier work.
Data set [4] relates to neonatal piglets. The note with it: cited from earlier work; for lung collagen accumulation: short-term inhaled exposure, neonatal piglets.
In data set [5] the test system is NF-κB. As to the kind of experiment: LPS-induced pulmonary NF-κB activation. The note with it: H2 and/or NO treatment. The format is in vivo, mice.
The test system of data set [6] is polymicrobial sepsis. As to the kind of experiment: Polymicrobial sepsis-induced lung injury. The note with it: H2 and/or NO treatment. The format is in vivo. An excerpt: However until applicants' discovery, there has not been a successful combination of hydrogen gas with breathing gas using the claimed apparatus and methods. Applicants have discovered that NO's effect as an antioxidant may be enhanced by eliminating highly reactive by-products of NO inhalation such as peroxynitrite, by adding H2 to inhaled NO gas.

The test system of data set [7] is mice with intratracheal administration of LPS. As to the kind of experiment: LPS-induced lung injury in mice (intratracheal LPS). It counts as in vivo. The note with it: for lung injury: 2% H2 and/or 20 ppm NO for 3 hours starting at 5 minutes or 3 hours after LPS administration; for pulmonary inflammation / cell apoptosis: H2 and/or NO treatment; for cell apoptosis: pulmonary.

Data set [8] relates to neonatal rats. The note with it: compared with control rats; cited from earlier work.
Data set [9] deals with brain ischemia-reperfusion (I/R). The note with it: inhaled; oxidative stress induced by focal ischemia-reperfusion; cited from earlier work.
Data set [10] relates to chrondrocytes. The note with it: cited from earlier work.

These results are taken from patent US20170165294A1, “METHOD AND APPARATUS FOR ADMINISTERING GASES INCLUDING NITRIC OXIDE TO ADDRESS FIBROSIS” (priority 2015, published 2017).

Where two headings read alike, the source gives them in different places.

As for `[N]=O` [NO, nitric oxide], in data set [1] (high doses and after 30 minutes), the “effect on HIF” value is recorded as “inhibitory”. In addition, the “effect on HIF” value in data set [1] (low dose, for 30 minutes, during hypoxia) is reported as “stimulates”. Moreover, the “survival in high O2 exposure” value in [2] was “increase survival”. In data set [3], the collagen synthesis entry was “inhibiting”; the “fibroblast number and differentiation” value is “reducing”. Also, in [4] (after a 3-day recovery period in RA), the “lung collagen content after recovery” value is reported as “significant decline”. Besides, the lung collagen accumulation entry in data set [4] is listed as “increases”. Besides, the “LPS-induced pulmonary early and late NF-κB activation” value in [5] is reported as “inhibited”. Also, the “lung injury in polymicrobial sepsis” value in data set [6] is “significantly attenuated”. In [7], the lung injury entry is “significantly improved”, the pulmonary inflammation result was “down-regulated” and the cell apoptosis entry is listed as “down-regulated”.

Take `COC(=O)[C@@H](N)CCCNC(=N)N[N+](=O)[O-]` [Nw-nitro-1-arginine methyl ester]: the “survival of exposure to >95% O2” value in data set [8] is “significantly fewer survived”.

Consider `[HH]` [H2, hydrogen], for which the brain injury result in [9] is “markedly suppressed”. Also, the “LPS-induced pulmonary early and late NF-κB activation” value in [5] is on record as “inhibited”. For the same compound, the “lung injury in polymicrobial sepsis” value in data set [6] is “significantly attenuated”. Besides, the “generation of hydroxyl radicals and peroxynitrite” value in data set [10] is on record as “selectively reduce”. In addition, in [7], the lung injury entry was “significantly improved”, the pulmonary inflammation result is “down-regulated” and the cell apoptosis result is reported as “down-regulated”.

With `O=O` [O2, oxygen], the lung collagen accumulation result in data set [4] is reported as “increases”.
